Measurements published in patent US20260217701A1, “SELECTIVE BET INHIBITORS AND USES THEREOF” (Tay Therapeutics Limited, priority 2022, published 2026).
“And” between values parts separate entries of the source, which are not always exact repeats. Identical values can stand only once.

Test system: collagen-induced arthritis
Experiment: Collagen-induced arthritis (CIA) model: clinical scores and paw volume; as to Average animal paw volume percent change (%): reference of the scale not given here; as to animal paw volume percent change (%): reference of the scale not given here
Type: in vivo, Lewis rats
Conditions: for Average animal paw volume percent change (%) / Animal paw volume percent change (%) / Average animal paw volume: group 4 CIA + GSK620 (10 mg/kg); for Animal paw volume percent change (%) / clinical score left forelimb / clinical score left hind limb / clinical score right forelimb / clinical score right hind limb / clinical score, score (all limbs) / Animal paw volume: individual animals; for Animal paw volume: Group 4 (CIA + GSK620)
[1] = group 4 CIA + GSK620, 2nd section of table, 1st day (between Day 12 and Day 18)
[2] = group 4 CIA + GSK620, 2nd section of table, 2nd day (between Day 12 and Day 18)
[3] = group 4 CIA + GSK620, 2nd section of table, 3rd day (between Day 12 and Day 18)

## CNC(=O)c1cc(C(=O)NC2CC2)cn(Cc2ccccc2)c1=O [GSK620]
CIA rats, 10 mg/kg
  Percent Inhibition in clinical score (Mean ± SD): 37 ± 14%
  Percent Inhibition in paw volume (Mean ± SD): 28 ± 21%
Day 0, L paw
  Average animal paw volume percent change (%): 0.00%
  Animal paw volume percent change (%): 0.00%
Day 0, R paw
  Average animal paw volume percent change (%): 0.00%
  Animal paw volume percent change (%): 0.00%
Day 0, CIA
  Average overall clinical score: 0
  clinical score left forelimb: 0
  clinical score left hind limb: 0
  clinical score right forelimb: 0
  clinical score right hind limb: 0
  clinical score, score (all limbs): 0
Day 6, L paw
  Average animal paw volume: 1.34 mL
Day 6, L paw, 10 mg/kg
  Animal paw volume percent change (%): −0.39% and −0.73% and 0.36% and 0.00% (2×) and −0.37%
Day 6, R paw
  Average animal paw volume: 1.34 mL
  Average animal paw volume percent change (%): 1.50%
Day 6, R paw, 10 mg/kg
  Animal paw volume percent change (%): −0.39% and 0.00% (4×)
Day 6, CIA
  Average overall clinical score: 0
  clinical score left forelimb: 0
  clinical score left hind limb: 0
  clinical score right forelimb: 0
  clinical score right hind limb: 0
  clinical score, score (all limbs): 0
Day 12, L paw
  Average animal paw volume: 1.36 mL
Day 12, L paw, 10 mg/kg
  Animal paw volume percent change (%): 0.76% and 0.00% and 1.50%
Day 12, R paw
  Average animal paw volume: 1.37 mL
Day 12, CIA
  Average overall clinical score: 0
  clinical score left forelimb: 0
  clinical score left hind limb: 0
  clinical score right forelimb: 0
  clinical score right hind limb: 0
  clinical score, score (all limbs): 0
Day 13, L paw
  Average animal paw volume: 1.38 mL
  Animal paw volume: 1.40 mL
Day 13, L paw, 10 mg/kg
  Animal paw volume percent change (%): −0.73%
Day 13, R paw
  Average animal paw volume: 1.41 mL
  Animal paw volume: 1.40 mL
Day 13, CIA
  Average detailed clinical score, right hind limb: 0.125
  Average detailed clinical score, score: 0.125
  Average overall clinical score: 0
  clinical score left forelimb: 0
  clinical score left hind limb: 0
  clinical score right forelimb: 0
  clinical score right hind limb: 0 (6×) and 1
  clinical score, score (all limbs): 0 (6×) and 1
Day 14, L paw, 10 mg/kg
  Animal paw volume percent change (%): −0.37%
Day 14, R paw, 10 mg/kg
  Animal paw volume percent change (%): 4.40%
Day 14, CIA
  Average detailed clinical score, left hind limb: 0.875
  Average detailed clinical score, right hind limb: 1.125
  Average overall clinical score: 2
  clinical score left forelimb: 0
  clinical score left hind limb: 0 (4×) and 2 (2×) and 1
  clinical score right forelimb: 0
  clinical score right hind limb: 0 (4×) and 2 (2×) and 3
  clinical score, score (all limbs): 0 (3×) and 4 and 3 (2×) and 2
Day 14, L paw
  Animal paw volume: 1.40 mL
Day 15, L paw
  Average animal paw volume: 1.74 mL
  Animal paw volume: 1.60 mL
Day 15, R paw, 10 mg/kg
  Animal paw volume percent change (%): 59.00%
Day 15, CIA
  Average detailed clinical score, left hind limb: 1.625
  Average detailed clinical score, score: 3.625
  Average overall clinical score: 4
  clinical score left forelimb: 0
  clinical score left hind limb: 1 (2×) and 3 (3×) and 0 (2×)
  clinical score right forelimb: 0
  clinical score right hind limb: 1 and 3 (3×) and 0 (2×) and 4
  clinical score, score (all limbs): 2 and 6 (3×) and 0 and 4 and 1
Day 18, CIA
  Average overall clinical score: 7
Day 19, L paw
  Average animal paw volume: 2.54 mL
Day 19, L paw, 10 mg/kg
  Animal paw volume percent change (%): 83.00% and 100.00%
Day 19, CIA
  Average overall clinical score: 8
Day 19, R paw
  Animal paw volume: 2.20 mL
Day 21, CIA
  Average overall clinical score: 8
[1]
  clinical score left forelimb: 0
  clinical score left hind limb: 0
  clinical score right forelimb: 0
  clinical score right hind limb: 0
  clinical score, score (all limbs): 0
[2]
  clinical score left forelimb: 0
  clinical score left hind limb: 2
  clinical score right forelimb: 0
  clinical score right hind limb: 2
  clinical score, score (all limbs): 4
[3]
  clinical score left forelimb: 0
  clinical score left hind limb: 2
  clinical score right forelimb: 0
  clinical score right hind limb: 2
  clinical score, score (all limbs): 4
Group 4 CIA + GSK620, Day 18
  clinical score left forelimb: 0
  clinical score left hind limb: 4 (7×) and 3
  clinical score right forelimb: 0
  clinical score right hind limb: 4 (6×) and 0 and 3
  clinical score, score (all limbs): 8 (6×) and 4 and 6
Group 4 CIA + GSK620, Day 19
  clinical score left forelimb: 1 (6×) and 0 (2×)
  clinical score left hind limb: 4 (5×) and 3 (3×)
  clinical score right forelimb: 0 (6×) and 1 (2×)
  clinical score right hind limb: 4 (3×) and 3 (4×) and 0
  clinical score, score (all limbs): 9 (2×) and 10 and 6 and 5 and 7 (2×) and 8
Group 4 CIA + GSK620, Day 20
  clinical score left forelimb: 1 (5×) and 2 and 0 (2×)
  clinical score left hind limb: 4 (5×) and 3 (3×)
  clinical score right forelimb: 0 (6×) and 1 (2×)
  clinical score right hind limb: 4 (3×) and 3 (4×) and 1
  clinical score, score (all limbs): 9 (2×) and 11 and 6 (2×) and 7 (2×) and 8
